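GI50 marks 50% less growth. TGI denotes the concentration required for complete inhibition of growth.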
Key:
Assay in all cases: NCI tumour cell line growth inhibition, 384-well format
NCI-H522 lung = tested on: NCI-H522 lung
A549 NSCLC = tested on: A549 NSCLC
HCT-15 colon = tested on: HCT-15 colon
SW-620 colon = tested on: SW-620 colon
NCI-H460 NSCLC = tested on: NCI-H460 NSCLC
SNB-19 CNS = tested on: SNB-19 CNS
LOX IMVI melanoma = tested on: LOX IMVI melanoma
BT-549 breast = tested on: BT-549 breast
ACHN renal = tested on: ACHN renal
HL-60(TB) leukemia = tested on: HL-60(TB) leukemia
SF-268 CNS = tested on: SF-268 CNS
DU-145 prostate = tested on: DU-145 prostate
T-47D breast = tested on: T-47D breast

| Structure (SMILES) | GI50 (NCI-H522 lung) [µM] | TGI (NCI-H522 lung) [µM] | GI50 (A549 NSCLC) [µM] | TGI (A549 NSCLC) [µM] | GI50 (HCT-15 colon) [µM] | TGI (HCT-15 colon) [µM] | GI50 (SW-620 colon) [µM] | TGI (SW-620 colon) [µM] | GI50 (NCI-H460 NSCLC) [µM] | TGI (NCI-H460 NSCLC) [µM] | GI50 (SNB-19 CNS) [µM] | TGI (SNB-19 CNS) [µM] | GI50 (LOX IMVI melanoma) [µM] | TGI (LOX IMVI melanoma) [µM] | GI50 (BT-549 breast) [µM] | TGI (BT-549 breast) [µM] | GI50 (ACHN renal) [µM] | TGI (ACHN renal) [µM] | GI50 (HL-60(TB) leukemia) [µM] | TGI (HL-60(TB) leukemia) [µM] | also measured |
| --- | --- | --- | --- | --- | --- | --- | --- | --- | --- | --- | --- | --- | --- | --- | --- | --- | --- | --- | --- | --- | --- |
| Cc1nc2ccc(-n3ncc(C(=O)c4cc5ccccc5[nH]4)c3N)cc2[nH]1 | 5.33 | 17.6 | 9.61 | 56.8 | 1.56 | 13.4 | 10.4 | 51.2 | 2.37 | 9.74 | 16 | > 66.7 | 3.27 | 8.34 | 5.72 | 20.7 | 8.92 | 48.5 | 2.97 | 12.3 | GI50 (SF-268 CNS): 10.6 µM; TGI (SF-268 CNS): 55.9 µM; GI50 (DU-145 prostate): 12.7 µM; TGI (DU-145 prostate): 41.7 µM; GI50 (T-47D breast): 6.8 µM; TGI (T-47D breast): 19.3 µM |
| CC(C)n1cc(-c2ccc3c(c2)N(C)CC3)c2c(NS(=O)(=O)c3ccn(C)n3)ccnc21 | > 80.4 | > 100 | 47.1 | > 100 | 90.6 | > 100 | > 51.5 | > 81.7 | > 85.7 | > 100 | > 100 | > 100 | 65.8 | > 100 | > 100 | > 100 | > 100 | > 100 | 33.1 | > 61.4 | GI50 (SF-268 CNS): > 100 µM; TGI (SF-268 CNS): > 100 µM; GI50 (DU-145 prostate): > 70.7 µM; TGI (DU-145 prostate): > 100 µM; GI50 (T-47D breast): 50.9 µM; TGI (T-47D breast): > 100 µM |
